Data: patent US10316017B2, “COT modulators and methods of use thereof” (Gilead Sciences, Inc., priority 2015, dated 2019)

Legend:
[1] = tested on: TNFα production in LPS-stimulated human monocytes; assay: Cot Monocyte TNFα Cell Based Assay; details: Homo sapiens, Monocyte, TNFα in LPS-stimulated human monocytes; read-out: EC50 TNF
Summary of the method: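 Percent-of-control values derive from TR-FRET ratios of TNFα in spun-down media, referenced to unstimulated and LPS-stimulated wells. Exposure: 1 h compound preincubation, then 50 pg/ml LPS for 4 h, both at 37 °C, with 0.5% final DMSO.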

[2] = target: T1, human Cot catalytic domain (30-397 amino acids) (Homo sapiens, UniProt P41279); assay: High Throughput Cot Biochemical Assay (KinEASE TR-FRET); details: Cot KinEASE TR-FRET (HTRF) biochemical assay, 400 μM ATP; read-out: IC50 HTRF
T1 construct: Purified recombinant human Cot catalytic domain (30-397 amino acids) was purchased from Cama Biosciences; purchased Cama Biosciences (so in the source)
T1 sequence (P41279 30-397): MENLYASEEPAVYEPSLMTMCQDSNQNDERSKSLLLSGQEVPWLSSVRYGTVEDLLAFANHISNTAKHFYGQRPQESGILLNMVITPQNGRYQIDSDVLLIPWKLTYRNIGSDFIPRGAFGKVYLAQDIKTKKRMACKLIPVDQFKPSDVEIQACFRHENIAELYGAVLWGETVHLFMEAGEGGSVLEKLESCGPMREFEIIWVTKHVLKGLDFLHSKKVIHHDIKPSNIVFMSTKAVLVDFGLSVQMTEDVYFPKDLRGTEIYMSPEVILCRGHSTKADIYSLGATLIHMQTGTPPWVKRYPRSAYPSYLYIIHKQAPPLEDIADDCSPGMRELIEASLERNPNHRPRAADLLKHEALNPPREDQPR
Summary of the method: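 Phosphorylation of 1 μM XL665-STK3 peptide by 5 nM Cot catalytic domain was measured by time-resolved FRET using a europium […] antibody. ATP was 400 μM; buffer was 10 mM MOPS pH 7.0 with Mg2+ and DTT.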

| SMILES | EC50 [1] [nM] | IC50 [2] [nM] |
| --- | --- | --- |
| [2H][C@](Nc1cc(Cl)c2ncc(C#N)c(N[C@@H]3C[C@H]3CC)c2c1)(c1ccc(F)cc1)c1cn(C2CC2)nn1 [Example 155, 8-chloro-6-(((S)-(1-cyclopropyl-1H-1,2,3-triazol-4-yl)(4-fluorophenyl)methyl-d)amino)-4-(((1R,2R)-2-ethylcyclopropyl)amino)quinoline-3-carbonitrile] | 348 | 36 |
| [2H][C@](Nc1cc(Cl)c2ncc(C#N)c(NC3CC3(C)C)c2c1)(c1ccc(F)cc1)c1cn(C2CC2)nn1 (stereo partly drawn) [Example 156, 8-chloro-6-(((S)-(1-cyclopropyl-1H-1,2,3-triazol-4-yl)(4-fluorophenyl)methyl-d)amino)-4-((2,2-dimethylcyclopropyl)amino)quinoline-3-carbonitrile] | 477 | 30 |
| [2H][C@](Nc1cc(Cl)c2ncc(C#N)c(Nc3ccccc3OC)c2c1)(c1ccc(F)cc1)c1cn(C2CC2)nn1 [Example 160, (S)-8-chloro-6-(((1-cyclopropyl-1H-1,2,3-triazol-4-yl)(4-fluorophenyl)methyl-d)amino)-4-((2-methoxyphenyl)amino)quinoline-3-carbonitrile] | 3260 | 496 |
| [2H][C@](Nc1cc(F)c2ncc(C#N)c(N[C@H](CCC#N)c3ccccc3)c2c1)(c1cccc(C#N)c1)c1cn(C2CC2)nn1 [Example 164, 4-(((R)-3-cyano-1-phenylpropyl)amino)-6-(((S)-(3-cyanophenyl)(1-cyclopropyl-1H-1,2,3-triazol-4-yl)methyl-d)amino)-8-fluoroquinoline-3-carbonitrile] | 15 | 1 |
| [2H][C@](Nc1cc(F)c2ncc(C#N)c(N[C@@H](CCC#N)c3ccccc3)c2c1)(c1cccc(C#N)c1)c1cn(C2CC2)nn1 [Example 165, 4-(((S)-3-cyano-1-phenylpropyl)amino)-6-(((S)-(3-cyanophenyl) (1-cyclopropyl-1H-1,2,3-triazol-4-yl)methyl-d)amino)-8-fluoroquinoline-3-carbonitrile] | 6270 | 2090 |
| [2H][C@](Nc1cc(Cl)c2ncc(C#N)c(N[C@H](CCN3CCCCC3)c3ccccc3)c2c1)(c1ccc(F)cc1)c1cn(C2CC2)nn1 [Example 166, 8-chloro-6-(((1-cyclopropyl-1H-1,2,3-triazol-4-yl)(4-fluorophenyl)methyl-d)amino)-4-(((R)-1-phenyl-3-(piperidin-1-yl)propyl)amino)quinoline-3-carbonitrile] | 979 | 61 |
| [2H][C@](Nc1cc(Cl)c2ncc(C#N)c(N[C@H](CCN3CCCC3)c3ccccc3)c2c1)(c1ccc(F)cc1)c1cn(C2CC2)nn1 [Example 167, 8-chloro-6-(((1-cyclopropyl-1H-1,2,3-triazol-4-yl) (4-fluorophenyl)methyl-d)amino)-4-(((R)-1-phenyl-3-(pyrrolidin-1-yl)propyl)amino) quinoline-3-carbonitrile] | > 10000 | 171 |
| [2H][C@](Nc1cc(-c2ccc(NC(C)=O)cc2)c2ncc(C#N)c(NCC(C)(C)C)c2c1)(c1ccc(F)cc1)c1cn(C2CC2)nn1 [Example 169, (S)-N-(4-(3-cyano-6-(((1-cyclopropyl-1H-1,2,3-triazol-4-yl)(4-fluorophenyl)methyl-d)amino)-4-(neopentylamino)quinolin-8-yl)phenyl)acetamide] | 2910 | 543 |
| [2H][C@](Nc1cc(-c2ccccc2)c2ncc(C#N)c(NCC(C)(C)C)c2c1)(c1ccc(F)cc1)c1cn(C2CC2)nn1 [Example 171, (S)-6-(((1-cyclopropyl-1H-1,2,3-triazol-4-yl)(4-fluorophenyl)methyl-d)amino)-4-(neopentylamino)-8-phenylquinoline-3-carbonitrile] | > 10000 | 9530 |
| [2H][C@](Nc1cc(OC)c2ncc(C#N)c(NCC(C)(C)C)c2c1)(c1ccc(F)cc1)c1cn(C2CC2)nn1 [Example 172, (S)-6-(((1-cyclopropyl-1H-1,2,3-triazol-4-yl)(4-fluorophenyl)methyl-d)amino)-8-methoxy-4-(neopentylamino) quinoline-3-carbonitrile] | 1640 | 139 |

Continued, values first:

| EC50 [1] [nM] | IC50 [2] [nM] | SMILES |
| --- | --- | --- |
| > 10000 | 3740 | [2H][C@](Nc1cc2c(NCC(C)(C)C)c(C#N)cnc2c(C)c1F)(c1ccc(F)cc1)c1cn(C2CC2)nn1 [Example 157, 6-(((1-cyclopropyl-1H-1,2,3-triazol-4-yl)(4-fluorophenyl)methyl-d)amino)-7-fluoro-8-methyl-4-(neopentylamino) quinoline-3-carbonitrile] |
| 1340 | 114 | [2H][C@](Nc1cc(Cl)c2ncc(C#N)c(Nc3cccc(Cl)c3C)c2c1)(c1ccc(F)cc1)c1cn(C2CC2)nn1 [Example 159, (S)-8-chloro-4-((3-chloro-2-methylphenyl)amino)-6-(((1-cyclopropyl-1H-1,2,3-triazol-4-yl)(4-fluorophenyl)methyl-d)amino)quinoline-3-carbonitrile] |
| > 10000 | 941 | [2H][C@](Nc1cc(Cl)c2ncc(C#N)c(N[C@H](c3ccccc3)[C@H]3C[C@@H]3C#N)c2c1)(c1ccc(F)cc1)c1cn(C2CC2)nn1 [Example 161, 8-chloro-4-(((S)-((1S,2S)-2-cyanocyclopropyl) (phenyl)methyl)amino)-6-(((S)-(1-cyclopropyl-1H-1,2,3-triazol-4-yl)(4-fluorophenyl)methyl-d)amino) quinoline-3-carbonitrile] |
| > 10000 | 7890 | [2H][C@](Nc1cc(Cl)c2ncc(C#N)c(N[C@H](c3ccccc3)[C@@H]3C[C@H]3C#N)c2c1)(c1ccc(F)cc1)c1cn(C2CC2)nn1 [Example 162, 8-chloro-4-(((S)-((1R,2R)-2-cyanocyclopropyl) (phenyl)methyl)amino)-6-(((S)-(1-cyclopropyl-1H-1,2,3-triazol-4-yl)(4-fluorophenyl)methyl-d)amino)quinoline-3-carbonitrile] |
| 170 | 3 | [2H][C@](Nc1cc(Cl)c2ncc(C#N)c(Nc3cccc(Cl)c3OC)c2c1)(c1ccc(F)cc1)c1cn(C2CC2)nn1 [Example 163, (S)-8-chloro-4-((3-chloro-2-methoxyphenyl)amino)-6-(((1-cyclopropyl-1H-1,2,3-triazol-4-yl)(4-fluorophenyl)methyl-d)amino)quinoline-3-carbonitrile] |
| 9570 | 2070 | [2H][C@](Nc1cc(-c2cn[nH]c2)c2ncc(C#N)c(NCC(C)(C)C)c2c1)(c1ccc(F)cc1)c1cn(C2CC2)nn1 [Example 168, (S)-6-(((1-cyclopropyl-1H-1,2,3-triazol-4-yl)(4-fluorophenyl)methyl-d)amino)-4-(neopentylamino)-8-(1H-pyrazol-4-yl)quinoline-3-carbonitrile] |
| 562 | 48 | [2H][C@](Nc1cc(-c2cccnc2)c2ncc(C#N)c(NCC(C)(C)C)c2c1)(c1ccc(F)cc1)c1cn(C2CC2)nn1 [Example 170, (S)-6-(((1-cyclopropyl-1H-1,2,3-triazol-4-yl)(4-fluorophenyl)methyl-d)amino)-4-(neopentylamino)-8-(pyridin-3-yl)quinoline-3-carbonitrile] |
